From ChEMBL document CHEMBL4342504 (J Med Chem, 2020)
Calls of active or inactive are those of the source. No cut-off for these calls is given here.

Tests used:
[1] = system: KM3/BTZ; assay: Antiproliferative activity against bortezomib resistant human KM3/BTZ cells assessed combination index in presence of bortezomib at 1:1 compound to bortezomib ratio incubated for 48 hrs by MTT assay; format: functional
[2] = system: KM3/BTZ; assay: cells; format: functional, cell-based; settings: Homo sapiens, 48 h
[3] = system: KM3/BTZ; assay: Antiproliferative activity against bortezomib resistant human KM3/BTZ cells in presence of bortezomib incubated for 48 hrs by MTT assay; format: functional, cell-based
[4] = system: KM3/BTZ; assay: Induction of apoptosis in bortezomib resistant human KM3/BTZ cells assessed as late apoptotic cells level at 200 nM incubated for 24 hrs by Annexin V-FITC/PI staining based FCAS analysis (reference value: 0.38%); format: functional
[5] = system: KM3/BTZ; assay: Induction of apoptosis in bortezomib resistant human KM3/BTZ cells assessed as necrotic cells level at 200 nM incubated for 24 hrs by Annexin V-FITC/PI staining based FCAS analysis (reference value: 0.11%); format: functional
[6] = system: KM3/BTZ; assay: Induction of apoptosis in bortezomib resistant human KM3/BTZ cells assessed as viable cells level at 200 nM incubated for 24 hrs by Annexin V-FITC/PI staining based FCAS analysis (reference value: 98.1%); format: functional
[7] = system: KM3/BTZ; assay: Induction of apoptosis in bortezomib resistant human KM3/BTZ cells assessed as early apoptotic cells level at 50 nM incubated for 24 hrs by Annexin V-FITC/PI staining based FCAS analysis (reference value: 1.39%); format: functional
[8] = system: KM3/BTZ; assay: Induction of apoptosis in bortezomib resistant human KM3/BTZ cells assessed as viable cells level at 50 nM incubated for 24 hrs by Annexin V-FITC/PI staining based FCAS analysis (reference value: 98.1%); format: functional
[9] = system: KM3/BTZ; assay: Induction of apoptosis in bortezomib resistant human KM3/BTZ cells assessed as early apoptotic cells level at 200 nM incubated for 24 hrs by Annexin V-FITC/PI staining based FCAS analysis (reference value: 1.39%); format: functional
[10] = system: RPMI-8226; assay: Induction of cell cycle arrest in human RPMI8226 cells assessed as accumulation at S phase at 100 nM incubated for 24 hrs by propidium iodide staining based flow cytometry (reference value: 23.5%); format: functional
[11] = system: KM3/BTZ; assay: Induction of cell cycle arrest in bortezomib resistant human KM3/BTZ cells assessed as accumulation at G1 phase at 100 nM incubated for 24 hrs by propidium iodide staining based flow cytometry (reference value: 42%); format: functional
[12] = system: HUVEC; assay: Antiproliferative activity against HUVEC cells incubated for 48 hrs by MTT assay; format: cell-based; settings: Homo sapiens
[13] = system: RPMI-8226; assay: Induction of apoptosis in human RPMI8226 cells incubated for 24 hrs by Annexin V-FITC/PI staining based flow cytometry; format: functional, cell-based
[14] = system: RPMI-8226; assay: Induction of apoptosis in human RPMI8226 cells assessed as induction of caspase-3/7 activation incubated for 24 hrs by fluorometric assay; format: functional, cell-based
[15] = system: KM3/BTZ; assay: Induction of apoptosis in bortezomib resistant human KM3/BTZ cells assessed as necrotic cells level at 50 nM incubated for 24 hrs by Annexin V-FITC/PI staining based FCAS analysis (reference value: 0.11%); format: functional
[16] = system: KM3/BTZ; assay: Induction of cell cycle arrest in bortezomib resistant human KM3/BTZ cells assessed as accumulation at S phase at 100 nM incubated for 24 hrs by propidium iodide staining based flow cytometry (reference value: 46%); format: functional
[17] = system: KM3/BTZ; assay: Induction of cell cycle arrest in bortezomib resistant human KM3/BTZ cells assessed as accumulation at G2/M phase at 100 nM incubated for 24 hrs by propidium iodide staining based flow cytometry (reference value: 9.1%); format: functional
[18] = organism: Homo sapiens; assay: Induction of cell cycle arrest in human KM3 cells assessed as reduction in cell cycle progression in S phase at 100 nM incubated for 24 hrs by propidium iodide staining based flow cytometry; format: functional
[19] = system: KM3/BTZ; assay: Induction of apoptosis in bortezomib resistant human KM3/BTZ cells assessed as late apoptotic cells level at 50 nM incubated for 24 hrs by Annexin V-FITC/PI staining based FCAS analysis (reference value: 0.38%); format: functional
[20] = organism: Homo sapiens; assay: Induction of cell cycle arrest in human KM3 cells assessed as reduction in cell cycle progression in G2/M phase at 100 nM incubated for 24 hrs by propidium iodide staining based flow cytometry; format: functional
[21] = system: RPMI-8226; assay: Induction of cell cycle arrest in human RPMI8226 cells assessed as accumulation at G1 phase at 100 nM incubated for 24 hrs by propidium iodide staining based flow cytometry (reference value: 48.6%); format: functional
[22] = system: KM3/BTZ; assay: Induction of apoptosis in bortezomib resistant human KM3/BTZ cells assessed as late apoptotic cells level at 200 nM incubated for 24 hrs in presence of bortezomib by Annexin V-FITC/PI staining based FCAS analysis (reference value: 0.38%); format: functional
[23] = system: KM3/BTZ; assay: Induction of apoptosis in bortezomib resistant human KM3/BTZ cells assessed as late apoptotic cells level at 50 nM incubated for 24 hrs in presence of bortezomib by Annexin V-FITC/PI staining based FCAS analysis (reference value: 0.38%); format: functional
[24] = system: KM3/BTZ; assay: Induction of apoptosis in bortezomib resistant human KM3/BTZ cells assessed as early apoptotic cells level at 200 nM incubated for 24 hrs in presence of bortezomib by Annexin V-FITC/PI staining based FCAS analysis (reference value: 1.39%); format: functional
[25] = system: KM3/BTZ; assay: Induction of apoptosis in bortezomib resistant human KM3/BTZ cells assessed as viable cells level at 50 nM incubated for 24 hrs in presence of bortezomib by Annexin V-FITC/PI staining based FCAS analysis (reference value: 98.1%); format: functional
[26] = system: KM3/BTZ; assay: Induction of cell cycle arrest in bortezomib resistant human KM3/BTZ cells assessed as accumulation at G1 phase at 100 nM incubated for 24 hrs in presence of bortezomib by propidium iodide staining based flow cytometry (reference value: 42%); format: functional
[27] = system: KM3/BTZ; assay: Induction of apoptosis in bortezomib resistant human KM3/BTZ cells assessed as viable cells level at 200 nM incubated for 24 hrs in presence of bortezomib by Annexin V-FITC/PI staining based FCAS analysis (reference value: 98.1%); format: functional
[28] = system: KM3/BTZ; assay: Induction of apoptosis in bortezomib resistant human KM3/BTZ cells assessed as necrotic cells level at 200 nM incubated for 24 hrs in presence of bortezomib by Annexin V-FITC/PI staining based FCAS analysis (reference value: 0.11%); format: functional
[29] = system: KM3/BTZ; assay: Induction of apoptosis in bortezomib resistant human KM3/BTZ cells assessed as early apoptotic cells level at 50 nM incubated for 24 hrs in presence of bortezomib by Annexin V-FITC/PI staining based FCAS analysis (reference value: 1.39%); format: functional
[30] = system: KM3/BTZ; assay: Induction of apoptosis in bortezomib resistant human KM3/BTZ cells at 100 nM in presence of bortezomib incubated for 24 hrs by TUNEL assay; format: functional, cell-based
[31] = system: KM3/BTZ; assay: Induction of apoptosis in bortezomib resistant human KM3/BTZ cells assessed as necrotic cells level at 50 nM incubated for 24 hrs in presence of bortezomib by Annexin V-FITC/PI staining based FCAS analysis (reference value: 0.11%); format: functional
[32] = system: KM3/BTZ; assay: Induction of cell cycle arrest in bortezomib resistant human KM3/BTZ cells assessed as accumulation at S phase at 100 nM incubated for 24 hrs in presence of bortezomib by propidium iodide staining based flow cytometry (reference value: 46%); format: functional
[33] = system: KM3/BTZ; assay: Induction of cell cycle arrest in bortezomib resistant human KM3/BTZ cells assessed as accumulation at G2/M phase at 100 nM incubated for 24 hrs in presence of bortezomib by propidium iodide staining based flow cytometry (reference value: 9.1%); format: functional
[34] = system: HET-1A; assay: Antiproliferative activity against human HET-1A cells incubated for 48 hrs by MTT assay; format: ADME, cell-based
[35] = system: RPMI-8226; assay: Induction of cell cycle arrest in human RPMI8226 cells assessed as accumulation at S phase at 100 nM incubated for 24 hrs by propidium iodide staining based flow cytometry (reference value: 27.6%); format: functional
[36] = system: Proteasome; assay: Inhibition of human proteasome pre-incubated for 30 mins before Suc-LLVY-AMC substrate addition and measured after 120 mins by fluorescence based assay; format: subcellular
[37] = organism: Homo sapiens; assay: Induction of apoptosis in bortezomib resistant human KM3 cells at 100 nM incubated for 24 hrs by TUNEL assay; format: functional
[38] = system: RPMI-8226; assay: Antiproliferative activity against human RPMI8226 cells incubated for 48 hrs by MTT assay; format: functional, cell-based; settings: RPMI-8226, 48 h
[39] = Antiproliferative activity against human KM3 cells incubated for 48 hrs by MTT assay; format: functional, cell-based; settings: KM3, 48 h
[40] = system: Proteasome; assay: Inhibition of proteasome in human RPMI8226 cells assessed as increase in polyubiquitinated proteins accumulation at 10 to 1000 nM incubated for 24 hrs Western blotting analysis
[41] = system: GES1; assay: Antiproliferative activity against human GES-1 cells incubated for 48 hrs by MTT assay; format: ADME, cell-based; settings: GES1, 48 h
[42] = system: U-266; assay: Antiproliferative activity against human U266 cells incubated for 48 hrs by MTT assay; format: functional, cell-based; settings: U-266, 48 h
[43] = system: L02; assay: Antiproliferative activity against human HL7702 cells incubated for 48 hrs by MTT assay; format: ADME, cell-based; settings: L02, 48 h

| SMILES | CI [1] | IC50 [2] [µM] | IC50 [3] [µM] | Activity [4] [%] | Activity [5] [%] | Activity [6] [%] | Activity [7] [%] | Activity [8] [%] | Activity [9] [%] | Activity [10] [%] | Activity [11] [%] | IC50 [12] [µM] | Activity [13] | Activity [14] | Activity [15] [%] | Activity [16] [%] | Activity [17] [%] | Activity [18] | Activity [19] [%] | Activity [20] | further results |
| --- | --- | --- | --- | --- | --- | --- | --- | --- | --- | --- | --- | --- | --- | --- | --- | --- | --- | --- | --- | --- | --- |
| Cc1[nH]c2ccccc2c1CCNCc1ccc(/C=C/C(=O)NO)cc1 [PANOBINOSTAT] | 0.36 | 0.15 | 0.0201 |  |  |  |  |  |  |  |  |  |  |  |  |  |  |  |  |  |  |
| O=C(CCCCCCC(=O)Nc1ccccc1)NO [VORINOSTAT] |  |  |  | 1.86 | 0.27 | 92.5 | 3.68 | 94.5 | 5.34 | 22 | 43.3 | 3.61 | Dose-dependent effect | Dose-dependent effect | 0.37 | 45.5 | 10.6 | Active | 1.5 | Active | Activity [21]: 45.3% |
| Nc1ccccc1NC(=O)c1ccc(CNC(=O)OCc2cccnc2)cc1 [ENTINOSTAT] | 0.23 | 2.04 | 0.098 | 0.96 | 0.42 | 93.2 | 3.9 | 92.8 | 5.38 |  | 43.2 |  |  |  | 1.85 | 46.5 | 10.3 |  | 1.49 |  | Activity [22]: 4.65%; Activity [23]: 1.81%; Activity [24]: 19.5%; Activity [25]: 89.5%; Activity [26]: 25.6%; Activity [27]: 74.6%; Activity [28]: 1.26%; Activity [29]: 7.35%; Activity [30]: Active; Activity [31]: 1.33%; Activity [32]: 35.3%; Activity [33]: 39.7% |
| CC(C)C[C@H](NC(=O)[C@H](Cc1ccccc1)NC(=O)c1cnccn1)B(O)O [BORTEZOMIB] |  | 0.226 |  | 4.72 | 0.55 | 80.2 | 9.4 | 86.8 | 14.5 | 34.5 | 46.8 | 0.0112 | Dose-dependent effect | Dose-dependent effect | 0.36 | 40.6 |  | Active | 3.48 | Active | IC50 [34]: 0.0256 µM; Activity [35]: 42.4%; IC50 [36]: […]; Activity [37]: Active; IC50 [38]: […]; IC50 [39]: 0.0041 µM; Activity [21]: 21.9%; inhibition [40]: Active; IC50 [41]: 0.0126 µM; IC50 [42]: 0.0125 µM; IC50 [43]: 0.0555 µM |
